Entries after “also recorded” stand apart in the source; their conditions may differ.
Target: T1, CXCR3-eGFP (Homo sapiens, UniProt P49682)
T1 construct: expressed in transfected cells; host or cells: HEK293T cells, transient
T1 sequence (P49682 1-368): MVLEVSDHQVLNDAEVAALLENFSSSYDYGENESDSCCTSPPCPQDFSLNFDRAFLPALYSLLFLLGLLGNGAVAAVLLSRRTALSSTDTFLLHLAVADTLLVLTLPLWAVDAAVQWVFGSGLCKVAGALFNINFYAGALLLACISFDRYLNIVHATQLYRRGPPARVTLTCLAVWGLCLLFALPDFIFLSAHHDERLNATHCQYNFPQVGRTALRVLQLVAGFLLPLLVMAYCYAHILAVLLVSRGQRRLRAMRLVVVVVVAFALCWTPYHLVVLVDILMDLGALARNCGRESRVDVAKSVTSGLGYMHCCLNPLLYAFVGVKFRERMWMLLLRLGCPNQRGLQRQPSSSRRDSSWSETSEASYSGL
Assay: Receptor internalization imaging (confocal laser scanning microscopy)
Assay type: cell-based
Details: CXCL11 10 nM; FAUC1036 10 µM and 1 µM; one hour; Figure 4A
Description: Receptor internalization imaging: The day before transfection HEK293T cells were seeded in 6-well plates at a density of 200,000 cells/well. Transient transfection of the C-terminally eGFP-tagged CXCR3 cDNA was performed using TransIT293(MIRUS). Cells were transferred to Poly-L-Lysine coated glass coverslips 24 h after transfection. 2 d after transfection, cells were washed with phosphate buffered saline (PBS) and treated with the endogenous chemokine CXCL11 or compound FAUC1036 at 37°C in 5% CO2 for 60min. Cells were fixed with 4% paraformaldehyde (RotiHistofix, Carl Roth) for 10min. […]
The effect of FAUC1036 on receptor internalization was investigated by scanning laser confocal microscopy and ELISA-based assay. […] The quantification of receptor internalization upon the treatment with the endogenous agonists and with either β-arrestin 2 biased FAUC1036 or G-protein biased FAUC1104 was performed with ELISA based assay. The HEK293T cells transiently expressing FLAG-CXCR3 were stimulated with compounds and chemokines for one hour, washed, fixed and the amount of FLAG-CXCR3 present on the surface was detected by anti-FLAG antibody.

Compound: CC(C)(C)OC(=O)N[C@@H](CCCCNC(=O)[C@@H]1Cc2ccccc2CN1C(=O)CCC(=O)c1ccccc1)C(=O)NCC(c1ccccc1)c1ccccc1 [Compound 11, Tert-butyl ((S)-1-((2,2-diphenylethyl)amino)-1-oxo-6-((S)-2-(4-oxo-4-phenylbutanoyl)-1,2,3,4-tertahydroisoquinoline-3-carboxamido)hexan-2-yl)carbamate]
- CXCR3 internalization (confocal microscopy): induced the CXCR3 internalization; also recorded: led to the internalization of a significant portion of the receptors

From patent publication EP3156398A1, “AGONISTS OF THE CHEMOKINE RECEPTOR CXCR3” (Friedrich-Alexander-Universität Erlangen-Nürnberg, priority 2015, dated 2017)
